These results are taken from US20100035994A1, “NOVEL HYDRATE FORM OF O-DESMETHYL VENLAFAXINE SUCCINATE” (priority 2006, published 2010).

SMILES strings stand for the structures.

The conditions of series [1]: in vivo; cited from earlier work.
Series [2] is described as follows: solubility of ODV succinate forms. It counts as physicochemical. The note with it: novel hydrate form of the present invention.
For series [3] the following is noted: converted into form III on milling; per U.S. Pat. No. 6,673,838; cited from earlier work.

On to `CN(C)CC(c1ccc(O)cc1)C1(O)CCCCC1.O=C(O)CCC(=O)O` (stereo not drawn) [ODV succinate, O-desmethyl venlafaxine succinate], for which the “absorption in the gastrointestinal tract” value in series [1] is given as “well absorbed”.

In the case of `CN(C)CC(c1ccc(O)cc1)C1(O)CCCCC1.O=C(O)CCC(=O)O` (stereo not drawn) [novel hydrate form of ODV succinate, O-desmethyl venlafaxine succinate], the solubility in series [2] turned out to be 55 mg/mL.

For the molecule `CN(C)CC(c1ccc(O)cc1)C1(O)CCCCC1.O.O=C(O)CCC(=O)O` (stereo not drawn) [ODV succinate monohydrate form I], the “stability of polymorphic form on milling” value in series [3] is reported as “unstable”.
